Data: publication PMC12040169 (PLOS Biology, 2025)

Legend:
[1] = tested on: T1, C. trachomatis L2/434/Bu expressing GFP (CTL2-GFP); test: microbe, parasite or virus in culture; parameters: C. trachomatis total inclusion area by high-content imaging, normalised to DMSO; conditions: Chlamydia trachomatis, HeLa, 28.5 h; total inclusion area; read-out: % of control remaining
T1 construct: L2/434/Bu GFP intracellular growth in HeLa cells
Description: We screened a library of 36,785 small molecules displaying drug-like properties and covering a wide chemical space (Fig 1A and S2A Data). In this process, we also complemented the assay described above with an imaging-based readout (Fig 1B). After measurements of bulk GFP and resorufin fluorescence, cells were fixed, stained with the DNA dye Hoechst, and imaged at a high-content imaging platform to detect chlamydial inclusions (GFP) and host cell nuclei (Hoechst). The total area and number of inclusions in individual wells and the number of nuclei then served as additional proxies for chlamydial growth and host cell viability. […] MICs were calculated as described above.

[2] = tested on: T2, CTL2-GFP (C. trachomatis L2/434/Bu, GFP-expressing); test: microbe, parasite or virus in culture; parameters: Intracellular C. trachomatis growth in HeLa cells, bulk GFP fluorescence relative to DMSO; conditions: Chlamydia trachomatis, HeLa, 28.5 h; bulk GFP, mean of 2; read-out: % of control remaining
T2 construct: L2/434/Bu, GFP-expressing
Procedure: MICs were calculated as described above.

in vitro = test: in vitro; parameters: Viability of infected HeLa host cells, resazurin conversion, bulk resorufin fluorescence relative to DMSO; conditions: human, hela cells; bulk resorufin, mean of 2

Compound | activity at 1 µM [1] [%] | activity at 5 µM [1] [%] | activity at 10 µM [1] [%] | activity at 1 µM [2] [%] | activity at 5 µM [2] [%] | activity at 10 µM [2] [%] | viability at 28.5 h, 1 µM (in vitro) [%] | viability at 28.5 h, 5 µM (in vitro) [%] | viability at 28.5 h, 10 µM (in vitro) [%]
Cn1cncc1C(=O)NCc1ccccc1 [CBK200199] | 111 | 106 | 69.3 | 95.8 | 109 | 110 | 114 | 107 | 104
CC(C)NCC(O)Cn1c2c(c3ccccc31)CCc1c-2cnn1-c1ccccc1 (stereo not drawn) [CBK261107] | 102 | 73.8 | 19.6 | 101 | 105 | 19.8 | 87.2 | 89.4 | 82.4
COc1cc(/C=N/c2cccc3c(/N=C/c4ccc(O)c(OC)c4)cccc23)ccc1O [CBK261224] | 114 | 68 | 40.8 | 120 | 67.3 | 44 | 89.7 | 86.7 | 81.8
Cc1cc(C)nc(NS(=O)(=O)c2ccc(Nc3ccc4nonc4c3[N+](=O)[O-])cc2)n1 [CBK261444] | 130 | 121 | 67.5 | 132 | 92.2 | 60.3 | 92.5 | 86.4 | 79.7
COc1ccc(C(=O)NNC(=O)/C=C/c2ccc(C(C)C)cc2)cc1 [CBK261697] | 121 | 97.3 | 48.1 | 111 | 98 | 43.2 | 95 | 95.5 | 94.3
c1ccc(Oc2cccc(OCCCN3CCCCC3)c2)cc1 [CBK261781] | 122 | 69.2 | 23.4 | 131 | 133 | 74.4 | 103 | 97 | 101
O=C(N/N=C\c1ccc([N+](=O)[O-])o1)c1nc(-c2ccccc2)cc(-c2ccccc2)n1 [CBK261958] | 4.65 | 0.0567 | 0 | 6.03 | 1.53 | 7.08 | 90 | 91.8 | 87.8
CN(C)CCCNC(=O)c1ccc([N+](=O)[O-])o1 [CBK262118] | 104 | 60.7 | 34.6 | 133 | 80.5 | 42.1 | 97.2 | 98.6 | 104
O=C(O)/C(=N\c1cccc2ccccc12)c1ccccc1 [CBK262224] | 69.5 | 62.2 | 32.2 | 80.4 | 66.5 | 49.9 | 87.4 | 88.7 | 96
CC(Nc1cccc2ccccc12)C(=O)N/N=C/c1c(O)ccc2ccccc12 (stereo not drawn) [CBK262678] | 100 | 47.4 | 21 | 132 | 74.4 | 72.2 | 90.9 | 83 | 74.2
COc1cc(NS(=O)(=O)c2ccc(Nc3nc(-c4sc(N)nc4C)cs3)cc2)nc(OC)n1 [CBK262796] | 110 | 55.3 | 28.8 | 106 | 58.4 | 32.6 | 93.6 | 92.2 | 88
CCCCc1ccc(NC(=N)Nc2nc(C)cc(C)n2)cc1 [CBK262967] | 75.4 | 38.5 | 9.61 | 89.4 | 33.4 | 22 | 90.3 | 95.4 | 90
OC(CN1CCOCC1)Cn1c(-c2ccccc2)c(-c2ccccc2)c2ccc3ccccc3c21 (stereo not drawn) [CBK263996G] | 101 | 73.2 | 61.6 | 113 | 96.6 | 91.1 | 90.5 | 92.4 | 89.5
